In ChEMBL document CHEMBL3045479, “Synthesis and anti-cancer activity of some novel C-17 analogs of ursolic and oleanolic acids” (2013):

Columns and labels:
Format in all cases: functional
PC-3 = assay: Growth inhibition of Homo sapiens (human) PC3 cells at 10 uM after 48 hr by SRB assay; conditions: PC-3, 48 h, read-out: GI
SiHa = assay: Growth inhibition of Homo sapiens (human) SiHa cells at 10 uM after 48 hr by SRB assay; conditions: read-out: GI
IMR-32 = assay: Growth inhibition of Homo sapiens (human) IMR32 cells at 10 uM after 48 hr by SRB assay; conditions: IMR-32, 48 h, read-out: GI
HeLa = assay: Growth inhibition of Homo sapiens (human) HeLa cells at 10 uM after 48 hr by SRB assay; conditions: read-out: GI
A549 = assay: Growth inhibition of Homo sapiens (human) A549 cells at 10 uM after 48 hr by SRB assay; conditions: A549, 48 h, read-out: GI
COLO 205 = assay: Growth inhibition of Homo sapiens (human) COLO205 cells at 10 uM after 48 hr by SRB assay; conditions: COLO 205, 48 h, read-out: GI
SW-620 = assay: Growth inhibition of Homo sapiens (human) SW620 cells at 10 uM after 48 hr by SRB assay; conditions: SW-620, 48 h, read-out: GI
THP-1 = assay: Growth inhibition of Homo sapiens (human) THP1 cells at 10 uM after 48 hr by SRB assay; conditions: THP-1, 48 h, read-out: GI

For `C[C@H]1[C@H](C)CC[C@]2(C(=O)O)CC[C@]3(C)C(=CC[C@@H]4[C@@]5(C)CC[C@H](O)C(C)(C)[C@@H]5CC[C@]43C)[C@H]12` [URSOLIC ACID], the inhibition of growth at 10 µM (PC-3) was 60%, the inhibition of growth at 10 µM (SiHa) was 67% and the inhibition of growth at 10 µM (IMR-32) was 13%. The inhibition of growth at 10 µM (HeLa) was 65%, the inhibition of growth at 10 µM (A549) was 8% and the inhibition of growth at 10 µM (COLO 205) was 7%. It also gave an inhibition of growth at 10 µM (SW-620) of 71% and an inhibition of growth at 10 µM (THP-1) of 52%.
